The structures appear in SMILES notation.

The first test has as its system DBA/2 mice. The test can be described thus: Audiogenic seizure model. The test is classed as in vivo. The settings on record: Mus musculus; DBA/2 mice, oral, dose 5 mg/kg, auditory stimulation 1 hour after administration; read-out: Seizure suppression. The procedure:
The animal model used in this test is a phenotype model for partial seizure (including secondary generalized seizure) and generalized tonic-clonic seizure, and has high clinical predictability. This test was performed in accordance with the report of De Sarro et al (Br J Pharmacol. 1988 February; 93 (2): 247-56. Anticonvulsant effects of some calcium entry blockers in DBA/2 mice. De Sarro G B, Meldrum B S, Nistico G.).
In this test example, the example compounds shown in Tables 3-1 to 3-3 below were used as test compounds.
The test compounds were suspended in 5% gum arabic/distilled water (w/v), and administered by forced oral administration to male and female DBA/2 mice (Japan SLC, Inc., 3 weeks old, 8 per group) at a dose of 30 mg/kg. After one hour of the oral administration of the test compound, each mouse was placed in a transparent acrylic cylinder 30 cm high and 23 cm in diameter, and 30 seconds were allowed for habituation. Then, they were exposed to auditory stimulation (12.6 kHz, 100-110 dB) for 1 minute or until a tonic seizure occurred.
The seizure response was assessed using the following scale, 0: no seizure, 1: wild running, 2: clonic seizure, 3: tonic seizure and 4: respiratory arrest. The maximum response was recorded as the seizure severity score.
The seizure suppression rate for each compound administration group was calculated according to the following formula.
Here, a rate of seizure suppression of 90% or more was expressed as “A”, a rate of seizure suppression of 70% or more and less than 90% was expressed as “B”, and a rate of seizure suppression of 50% or more and less than 70% was expressed as “C”.
In the case of `Fc1cccc(Oc2ncc(-c3ccc4nccn4c3)cn2)c1F` [Example 164], the inhibition in vivo at 5 mg/kg is over 90%.
Turning to `Fc1ccc(Oc2ncc(-c3ccc4nccn4c3)cn2)c(F)c1` [Example 165], the inhibition in vivo at 5 mg/kg is over 90%.
The same measure, in the same setting: the figure for `Fc1ccc(F)c(Oc2ncc(-c3ccc4nccn4c3)cn2)c1` [Example 166] is over 90%; for `Fc1cccc(F)c1Oc1ncc(-c2ccc3nccn3c2)cn1` [Example 167] it is over 90%.
Same read-out and setting: the figure for `Fc1ccc(Oc2ncc(-c3ccc4nccn4c3)cn2)cc1F` [Example 168] is over 90%; for `Fc1cc(F)cc(Oc2ncc(-c3ccc4nccn4c3)cn2)c1` [Example 169] it is over 90%.

The test is the same for the next values; noted with them: Mus musculus; DBA/2 mice, oral, dose 30 mg/kg, auditory stimulation 1 hour after administration; read-out: Seizure suppression.
As for `O=c1ccc(-c2cnc(Oc3ccc(F)cc3F)nc2)n[nH]1` [Example 109], the inhibition in vivo at 30 mg/kg is over 90%.
Same read-out and setting: then `O=c1ccc(-c2cnc(Oc3cccc(F)c3F)nc2)n[nH]1` [Example 110], with over 90%; and `O=c1ccc(-c2cnc(Oc3cccc(Cl)c3)nc2)n[nH]1` [Example 111], with over 90%.
Same read-out and setting: then `N#Cc1cccc(Oc2ncc(-c3ccc(=O)[nH]n3)cn2)c1` [Example 112], with over 90%; and `O=c1[nH]nccc1-c1cnc(Oc2cccc(F)c2)nc1` [Example 115], with over 90%; and `O=c1cc(-c2cnc(Oc3ccccc3)nc2)cn[nH]1` [Example 116], with over 90%.
Still for that read-out and setting: then `O=c1[nH]nccc1-c1cnc(Oc2ccccc2F)nc1` [Example 117], with over 90%.
Take `Fc1ccccc1Oc1ncc(-c2ccc3nccn3n2)cn1` [Example 124]: the inhibition in vivo at 30 mg/kg was over 90%.
The same measure, in the same setting: then `Fc1cccc(Oc2ncc(-c3ccc4nccn4n3)cn2)c1` [Example 125], with over 90%.
On to `Fc1ccc(Oc2ncc(-c3ccc4nccn4n3)cn2)cc1` [Example 126], for which the inhibition in vivo at 30 mg/kg was over 90%.
The same measure, in the same setting: then `c1ccc(Oc2ncc(-c3cnc4nccn4c3)cn2)cc1` [Example 128], with over 90%.
Consider `Fc1ccccc1Oc1ncc(-c2ccn3ccnc3c2)cn1` [Example 130], for which the inhibition in vivo at 30 mg/kg was over 90%.
As for `Fc1cccc(Oc2ncc(-c3ccn4ccnc4c3)cn2)c1` [Example 131], the inhibition in vivo at 30 mg/kg was over 90%.
Turning to `Fc1ccc(Oc2ncc(-c3ccn4ccnc4c3)cn2)cc1` [Example 132], the inhibition in vivo at 30 mg/kg was over 90%.
In the case of `c1ccc(Oc2ncc(-c3cnc4[nH]ncc4c3)cn2)cc1` [Example 133], the inhibition in vivo at 30 mg/kg is over 90%.
The same measure, in the same setting: then `c1ccc(Oc2ncc(-c3ccn4ncnc4c3)cn2)cc1` [Example 135], with over 90%; and `c1ccc(Oc2ncc(-c3cccc4nccn34)cn2)cc1` [Example 136], with over 90%; and `c1ccc(Oc2ncc(-c3ccnc4[nH]ccc34)cn2)cc1` [Example 138], with over 90%.
On the same count and under the same terms, the figure for `c1ccc(Oc2ncc(-c3ccnc4ncccc34)cn2)cc1` [Example 139, 4-(2-Phenoxypyrimidin-5-Yl)-1,8-Naphthyridine] is over 90%.
`Nc1cn2cc(-c3cnc(Oc4ccccc4)nc3)ccc2n1` [Example 140]: the inhibition in vivo at 30 mg/kg is over 90%.
For the compound `COc1nc(Oc2ccccc2)ncc1-c1ccc2nccn2c1` [Example 142], the inhibition in vivo at 30 mg/kg was over 90%.
On the same count and under the same terms, the figure for `Fc1ccccc1Oc1ncc(-c2ccc3ncnn3c2)cn1` [Example 144] is over 90%; for `Fc1cccc(Oc2ncc(-c3ccc4ncnn4c3)cn2)c1` [Example 145] it is over 90%; for `Fc1ccc(Oc2ncc(-c3ccc4ncnn4c3)cn2)cc1` [Example 146] it is over 90%.
Regarding `NC1=NC2C=CC(c3cnc(Oc4ccccc4)nc3)=CC2=N1` (centres unmarked) [Example 147], the inhibition in vivo at 30 mg/kg was over 90%.
On to `Fc1ccccc1Oc1ncc(-c2cn3ccnc3cn2)cn1` [Example 149], for which the inhibition in vivo at 30 mg/kg was over 90%.
Turning to `Fc1cccc(Oc2ncc(-c3cn4ccnc4cn3)cn2)c1` [Example 150], the inhibition in vivo at 30 mg/kg is over 90%.
Still for that read-out and setting: then `Fc1ccccc1Oc1ncc(-c2ccc3ccnn3c2)cn1` [Example 152], with over 90%; and `Fc1cccc(Oc2ncc(-c3ccc4ccnn4c3)cn2)c1` [Example 153], with over 90%; and `Fc1ccc(Oc2ncc(-c3ccc4ccnn4c3)cn2)cc1` [Example 154], with over 90%.
On the same count and under the same terms, then `Fc1ccccc1Oc1ncc(-c2ccc3cncn3c2)cn1` [Example 156], with over 90%; and `Fc1cccc(Oc2ncc(-c3ccc4cncn4c3)cn2)c1` [Example 157], with over 90%; and `Fc1ccc(Oc2ncc(-c3ccc4cncn4c3)cn2)cc1` [Example 158], with over 90%.
The same measure, in the same setting: the figure for `COc1nc(Oc2ccccc2)ncc1-c1ccc2nncn2c1` [Example 159] is over 90%.
Consider `COc1nc(Oc2ccccc2)ncc1-c1ccc2nccn2n1` [Example 160], for which the inhibition in vivo at 30 mg/kg is over 90%.
Same read-out and setting: the figure for `Fc1ccccc1Oc1ncc(-c2ccc3cnnn3c2)cn1` [Example 174] is over 90%; for `Fc1cccc(Oc2ncc(-c3ccc4cnnn4c3)cn2)c1` [Example 175] it is over 90%.
Same read-out and setting: then `Fc1ccc(Oc2ncc(-c3ccc4cnnn4c3)cn2)cc1` [Example 176], with over 90%.
The same measure, in the same setting: the figure for `Cc1cn2cc(-c3cnc(Oc4ccccc4F)nc3)ccc2n1` [Example 178] is over 90%; for `Cc1cn2cc(-c3cnc(Oc4cccc(F)c4)nc3)ccc2n1` [Example 179] it is over 90%; for `Cc1cn2cc(-c3cnc(Oc4ccc(F)cc4)nc3)ccc2n1` [Example 180] it is over 90%.
As for `Cc1cn2ccc(-c3cnc(Oc4ccccc4F)nc3)cc2n1` [Example 182], the inhibition in vivo at 30 mg/kg is over 90%.
As to `Cc1cn2ccc(-c3cnc(Oc4cccc(F)c4)nc3)cc2n1` [Example 183], the inhibition in vivo at 30 mg/kg was over 90%.
Still for that read-out and setting: then `Fc1ccccc1Oc1ncc(-c2ccn3nncc3c2)cn1` [Example 185], with over 90%; and `Fc1cccc(Oc2ncc(-c3ccn4nncc4c3)cn2)c1` [Example 186], with over 90%; and `Fc1ccc(Oc2ncc(-c3ccn4nncc4c3)cn2)cc1` [Example 187], with over 90%.
Turning to `Fc1cccc(Oc2ncc(-c3cnc4ncnn4c3)cn2)c1` [Example 189], the inhibition in vivo at 30 mg/kg was over 90%.
Same read-out and setting: the figure for `Cc1cnc2ccc(-c3cnc(Oc4ccccc4F)nc3)cn12` [Example 191] is over 90%; for `Cc1cnc2ccc(-c3cnc(Oc4cccc(F)c4)nc3)cn12` [Example 192] it is over 90%; for `Cc1cnc2ccc(-c3cnc(Oc4ccc(F)cc4)nc3)cn12` [Example 193] it is over 90%.
Same read-out and setting: the figure for `Fc1ccccc1Oc1ncc(-c2ccn3nccc3c2)cn1` [Example 195] is over 90%.
Same read-out and setting: the figure for `Fc1cccc(Oc2ncc(-c3ccn4nccc4c3)cn2)c1` [Example 196] is over 90%; for `Fc1ccc(Oc2ncc(-c3ccn4nccc4c3)cn2)cc1` [Example 197] it is over 90%.

These data come from patent publication US12391674B2, “Heterocyclic compounds for the treatment of epilepsy” (OTSUKA PHARMACEUTICAL CO., LTD., priority 2018, dated 2025).
